Assay [1] has as its system Zika virus. As to the kind of experiment: EC50 is reported via analysis of immunofluorescence staining. The assay has been performed by Icahn School of Medicine at Mount Sinai. In kind it is functional, organism-based, Chlorocebus sabaeus, VeroE6/TMPRSS2. The settings on record: Zika virus; for EC90: P-gp concentration 2 uM, P-gp inhibitor Elacidar.
In assay [2] the test system is dengue virus type 2. Description: Functional immunofluorescence assay to measure dose dependent changes in antiviral-drug inhibitory efficacy against Dengue virus type 2 Thailand/16681/84 in Vero E6/TMPRSS2 cells (cotreated with P-gp inhibitor, Elacridar). Cells are treated with antiviral candidates that are serially diluted, following infection, cells are fixed. EC50 is reported via analysis of immunofluorescence staining. The assay has been performed by Icahn School of Medicine at Mount Sinai. It is filed as organism-based, Chlorocebus sabaeus, VeroE6/TMPRSS2. The settings on record: Dengue virus.

In assay [3] the test system is Zika virus. As to the kind of experiment: Functional CPE-based assay to measure dose dependent changes in antiviral-drug inhibitory efficacy against Zika virus MR766 in Vero E6 miRFP670 cells. Cells are treated with antiviral candidates that are serially diluted. EC50 is reported via analysis of MTS assay as a readout of CPE. The assay has been performed by KU Leuven. As to conditions: Zika virus; for EC50: Vero C1008. In kind it is organism-based, Chlorocebus sabaeus, Vero C1008. In general terms: Formazan colour is commonly taken as a measure of viable cells.

Assay [4] deals with dengue virus type 2. Description: Functional assay to measure dose dependent changes in antiviral-drug inhibitory efficacy against Dengue virus type 2 New Guinea C in Vero E6 miRFP670 cells (cotreated with P-gp inhibitor, CP100356). Cells are treated with antiviral candidates that are serially diluted, following infection, cells are fixed. EC50 is reported via analysis of fluorescence intensity using high-content imager. The …. It is filed as organism-based, Chlorocebus sabaeus, Vero C1008. The settings on record: Dengue virus.

One may read the EC50 as the concentration that produces a half-maximal response. What is called EC90 is the point of the concentration-response curve where the effect stands at 90%.

`CC(C)Cc1nc2c(C(=O)Nc3ccc4c(c3)CNC4)cc(Br)cc2[nH]1`: the EC50 in the assay with Zika virus [1] (VeroE6/TMPRSS2) was greater than 5.56 µM; with dengue virus type 2 [2] (VeroE6/TMPRSS2), greater than 5.56 µM; in the assay with Zika virus [3] it was greater than 50 µM; in the assay with dengue virus type 2 [4] (Vero C1008), greater than 0.781 µM. Besides, the EC90 in the assay with Zika virus [1] (VeroE6/TMPRSS2, Baseline response 0 %, Hill slope -10.435, Maximum measured 137.671 %, Maximum response 100 %, Minimum measured 68.671 %, R squared 0.096) is greater than 5.56 µM; with dengue virus type 2 [2] (VeroE6/TMPRSS2, Maximum measured 192.149 %, Minimum measured 144.973 %, P-gp concentration 2 uM, P-gp inhibitor Elacidar) it was greater than 5.56 µM; in the assay with Zika virus [3] (Vero C1008, Baseline response 0 %, Hill slope 1.82, Maximum measured 17.962 %, Maximum response 100 %, Minimum measured -5.537 %, R squared 0.817), greater than 50 µM; with dengue virus type 2 [4] (Vero C1008, Maximum measured 122.11 %, Minimum measured 121.973 %, P-gp concentration 500 nM, P-gp inhibitor CP100356), greater than 0.781 µM.

Regarding `O=C(Nc1cc(Cl)cc(C(=O)NCc2ccc(-c3nnn[nH]3)cc2)c1)OCc1ccccc1`, the EC50 was greater than 16.7 µM in the assay with Zika virus [1] (VeroE6/TMPRSS2), 24.8 µM in the assay on dengue virus type 2 [2] (VeroE6/TMPRSS2), greater than 50 µM with Zika virus [3] and greater than 50 µM in the assay on dengue virus type 2 [4] (Vero C1008). Besides, the EC90 is greater than 16.7 µM with Zika virus [1] (VeroE6/TMPRSS2, Maximum measured 73.474 %, Minimum measured 51.372 %); 40.9 µM in the assay on dengue virus type 2 [2] (VeroE6/TMPRSS2); greater than 50 µM in the assay with Zika virus [3] (Vero C1008, Baseline response 0 %, Hill slope 2.99, Maximum measured 29.669 %, Maximum response 100 %, Minimum measured 0.824 %, R squared 0.934); greater than 50 µM in the assay on dengue virus type 2 [4] (Vero C1008, Maximum measured 125.704 %, Minimum measured 70.659 %, P-gp concentration 500 nM, P-gp inhibitor CP100356).

For the compound `Clc1ccc2[nH]cc(Cc3ccc(-c4nn[nH]n4)cc3)c2c1`, the EC50 in the assay on Zika virus [1] (VeroE6/TMPRSS2) was 39.4 µM; in the assay with dengue virus type 2 [2] (VeroE6/TMPRSS2) it was 24.6 µM; in the assay on Zika virus [3] it was greater than 50 µM; in the assay on dengue virus type 2 [4] (Vero C1008) it was greater than 50 µM. Also, the EC90 in the assay on Zika virus [1] (VeroE6/TMPRSS2, Baseline response 0 %, Hill slope -2.483, Maximum measured 171.794 %, Maximum response 100 %, Minimum measured 35.965 %, R squared 0.343) was greater than 50 µM; in the assay on dengue virus type 2 [2] (VeroE6/TMPRSS2) it was 34 µM; with Zika virus [3] (Vero C1008, Maximum measured 1.604 %, Minimum measured -1.05 %), greater than 50 µM; with dengue virus type 2 [4] (Vero C1008) it was greater than 50 µM.

Turning to `NCc1cccc(CCc2cc(Cl)cc(NC(=O)OCc3ccccc3)c2)c1`, the EC50 is greater than 50 µM in the assay with Zika virus [1] (VeroE6/TMPRSS2), greater than 1.85 µM in the assay with dengue virus type 2 [2] (VeroE6/TMPRSS2), greater than 50 µM in the assay on Zika virus [3] and 7.13 µM with dengue virus type 2 [4] (Vero C1008). The EC90 in the assay on Zika virus [1] (VeroE6/TMPRSS2, Maximum measured 110.897 %, Minimum measured 60.854 %) was greater than 50 µM; with dengue virus type 2 [2] (VeroE6/TMPRSS2, Maximum measured 240.936 %, Minimum measured 110.203 %, P-gp concentration 2 uM, P-gp inhibitor Elacidar), greater than 1.85 µM; in the assay on Zika virus [3] (Vero C1008, Maximum measured 1.168 %, Minimum measured -5.971 %), greater than 50 µM; with dengue virus type 2 [4] (Vero C1008, Baseline response 0 %, EC90 CI (lower) 3.921 uM, EC90 CI (upper) 6.549 uM, Hill slope -6.432, Maximum measured 108.307 %, Maximum response 100 %, Minimum measured 4.257 %, P-gp concentration 500 nM, R squared 0.964, P-gp inhibitor CP100356), 10 µM.

Take `COC(=O)c1cc(NC(=O)c2cc(Cl)cc(NC(=O)OCc3ccccc3)c2)cc(-c2nnn[nH]2)c1`: the EC50 with Zika virus [1] (VeroE6/TMPRSS2) is greater than 16.7 µM; with dengue virus type 2 [2] (VeroE6/TMPRSS2), 39.8 µM; in the assay with Zika virus [3] it was greater than 50 µM; in the assay with dengue virus type 2 [4] (Vero C1008) it was 43.1 µM. The EC90 with Zika virus [1] (VeroE6/TMPRSS2, Maximum measured 163.156 %, Minimum measured 112.225 %) is greater than 16.7 µM; in the assay with dengue virus type 2 [2] (VeroE6/TMPRSS2, Baseline response 0 %, Hill slope -17.631, Maximum measured 314.134 %, Maximum response 266.23 %, Minimum measured 4.599 %, P-gp concentration 2 uM, R squared 0.779, P-gp inhibitor Elacidar) it was 45 µM; with Zika virus [3] (Vero C1008, Maximum measured 4.051 %, Minimum measured -3.87 %) it was greater than 50 µM; with dengue virus type 2 [4] (Vero C1008) it was 49.4 µM.

The values are drawn from ChEMBL document CHEMBL5661943, “ASAP - In vitro antiviral effect” (2024).
